Assays:
[1] = system: MDA-MB-231 triple-negative breast cancer cells; test: Proliferation of MDA-MB-231 triple-negative breast cancer cells in vitro; type: cell-based, human; conditions: for Cell proliferation (% control) as a function of parthenolide analog dose (10 uM). / Cell proliferation (% control) as a function of parthenolide analog dose (50 uM).: MDA-MB-231 cells, data corresponds to FIG. 5; for Antitumor effects compared with dimethylamino-parthenolide (DMAPT): MDA-MB-231, doses 0-50 micromolar, most notable at 10 micromolar, FIG. 2
Experimental: FIG. 2: Parthenolides inhibit proliferation of MDAMB231 triple negative breast cancer cells. Parthenolide analogues JD211-JD216 were tested for antitumor activity using triple-negative breast cancer cells (MDA-MB-231) in vitro. Doses ranged from 0-50 micromolar and tumor cell proliferation was assessed using established methods. […] This was most notable at lower compound dose at 10 micromolar. These findings indicate that novel compounds such as JD213, JD214, JD215 and JD216 are more promising candidates for anticancer therapy then DMAPT because these cancers are more sensitive to compounds other than DMAPT.
Parthenolide analogues JD211-JD216 were tested for antitumor activity using triple-negative breast cancer cells (MDA-MB-231) in vitro. Doses ranged from 0-50 micromolar and tumor cell proliferation was assessed using established methods. […] This was most notable at lower compound dose at 10 micromolar. These findings indicate that novel compounds such as JD213, JD214, JD215 and JD216 are more promising candidates for anticancer therapy then DMAPT because these cancers are more sensitive to compounds other than DMAPT.

[2] = system: human umbicical vein endothelial cells (HUVEC); test: Proliferation of human umbilical vein endothelial cells (HUVEC) in vitro; type: cell-based; conditions: dosed at 100-nM or at doses up to 10-uM (not shown); FIG. 6

C/C1=C\CC[C@@]2(C)O[C@H]2[C@H]2OC(=O)[C@@H](CNCC(=O)O)[C@@H]2CC1 [JD211, (((3R,3aS,1bS,E)-6,9a-dimethyl-2-oxo-2,3,3a,4,5,8,9,9a,10a,10b-decahydrooxire-no[2′,3′:9,10]cyclodeca[1,2-b]furan-3-yl)methyl)glycine]
Cell proliferation (% control) as a function of parthenolide analog dose (10 uM). [1]: 106.0 % control | Cell proliferation (% control) as a function of parthenolide analog dose (50 uM). [1]: 105.8 % control

C/C1=C\CC[C@@]2(C)O[C@H]2[C@H]2OC(=O)[C@@H](CNC(C)(C)C(=O)OCc3ccccc3)[C@@H]2CC1 [JD212, Benzyl 2-((((3R,3aS,10bS,E)-6,9a-dimethyl-2-oxo-2,3,3a,4,5,8,9,9a,10a,10b-decahydrooxir-eno[2′,3′:9,10]cyclodeca[1,2-b]furan-3-yl)methyl)amino)-2-methylpropanoate]
Cell proliferation (% control) as a function of parthenolide analog dose (10 uM). [1]: 103.4 % control | Cell proliferation (% control) as a function of parthenolide analog dose (50 uM). [1]: 100.8 % control

C/C1=C\CC[C@@]2(C)O[C@H]2[C@H]2OC(=O)[C@@H](CN(C)CC(=O)OCc3ccccc3)[C@@H]2CC1 [JD213, Benzyl N-(((3R,3aS,10bS,E)-6,9a-dimethyl-2-oxo-2,3,3a,4,5,8,9,9a,10a,10b-decahydrooxire-no[2′,3′:9,10]cyclodeca[1,2-b]furan-3-yl)methyl)-N-methylglycinate]
Cell proliferation (% control) as a function of parthenolide analog dose (10 uM). [1]: 26.7 % control | Cell proliferation (% control) as a function of parthenolide analog dose (50 uM). [1]: 0.4 % control | Antitumor effects compared with dimethylamino-parthenolide (DMAPT) [1]: greater than that observed with dimethylamino-parthenolide (DMAPT)

C/C1=C\CC[C@@]2(C)O[C@H]2[C@H]2OC(=O)[C@@H](CN(C)CC(=O)O)[C@@H]2CC1 [JD214, N-(((3R,3aS,10bS,E)-6,9a-Dimethyl-2-oxo-2,3,3a,4,5,8,9,9a,10a,10b-decahydrooxire-no[2′,3′:9,10]cyclodeca[1,2-b]furan-3-yl)methyl)-N-methylglycine]
Cell proliferation (% control) as a function of parthenolide analog dose (10 uM). [1]: 40.0 % control | Cell proliferation (% control) as a function of parthenolide analog dose (50 uM). [1]: 16.6 % control | Antitumor effects compared with dimethylamino-parthenolide (DMAPT) [1]: greater than that observed with dimethylamino-parthenolide (DMAPT)

C/C1=C\CC[C@@]2(C)O[C@H]2[C@H]2OC(=O)[C@@H](CNC(C)(C)C(=O)O)[C@@H]2CC1 [JD215, 2-((((3R,3aS,10bS,E)-6,9a-Dimethyl-2-oxo-2,3,3a,4,5,8,9,9a,10a,10b-decahydrooxire-no[2′,3′:9,10]cyclodeca[1,2-b]furan-3-yl)methyl)amino)-2-methylpropanoic acid]
Cell proliferation (% control) as a function of parthenolide analog dose (10 uM). [1]: 59.5 % control | Cell proliferation (% control) as a function of parthenolide analog dose (50 uM). [1]: 0 % control | Antitumor effects compared with dimethylamino-parthenolide (DMAPT) [1]: greater than that observed with dimethylamino-parthenolide (DMAPT)

C/C1=C\CC[C@@]2(C)O[C@H]2[C@H]2OC(=O)[C@@H](CNCC(=O)OCc3ccccc3)[C@@H]2CC1 [JD216, Benzyl (((3R,3aS,10bS,E)-6,9a-dimethyl-2-oxo-2,3,3a,4,5,8,9,9a,10a,10b-decahydrooxire-no[2′,3′:9,10]cyclodeca[1,2-b]furan-3-yl)methyl)glycinate]
Effect on proliferation of HUVEC [2]: does not significantly alter | Cell proliferation (% control) as a function of parthenolide analog dose (10 uM). [1]: 0 % control | Cell proliferation (% control) as a function of parthenolide analog dose (50 uM). [1]: 0 % control | Suppression of MDA-MB-231 cell proliferation ([1]; 100-nM dose (0.1-uM) in vitro, compared to control (P<0.001), FIG. 6): effectively suppress | Antitumor effects compared with dimethylamino-parthenolide (DMAPT) [1]: greater than that observed with dimethylamino-parthenolide (DMAPT)

Source: US10512630B2, “Compositions and methods for treating cancer” (The Regents Of The University Of California, priority 2015, dated 2019)
